Data as given in article PMC11831592, “Repurposing Linezolid in Conjunction with Histone Deacetylase Inhibitor Access in the Realm of Glioblastoma Therapies” (Journal of Medicinal Chemistry, 2025).

Columns and labels:
HDAC8 = biological target: T1, HDAC8 (Homo sapiens, UniProt Q9BY41); test: HDAC enzyme inhibition assay, HDAC8; type: biochemical; conditions: 10-dose, 3-fold serial dilution starting at 10 μM
T1 construct: purchased Reaction Biology Corporation, Malvern, PA (contract assay service)
T1 sequence (Q9BY41 1-377): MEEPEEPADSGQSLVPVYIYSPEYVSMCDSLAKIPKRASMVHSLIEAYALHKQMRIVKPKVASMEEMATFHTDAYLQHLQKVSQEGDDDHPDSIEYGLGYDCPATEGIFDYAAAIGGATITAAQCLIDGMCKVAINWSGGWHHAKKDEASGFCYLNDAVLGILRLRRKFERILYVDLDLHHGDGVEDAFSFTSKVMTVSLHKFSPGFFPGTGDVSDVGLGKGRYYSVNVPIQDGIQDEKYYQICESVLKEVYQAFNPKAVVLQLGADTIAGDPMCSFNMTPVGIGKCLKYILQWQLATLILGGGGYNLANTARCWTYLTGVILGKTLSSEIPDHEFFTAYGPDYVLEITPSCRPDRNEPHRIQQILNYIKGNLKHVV
Method: (§1) Enzyme inhibition assays were performed by the Reaction Biology Corporation, Malvern, PA (http://www.reactionbiology.com).

[1] = Pharmacokinetic study in Sprague-Dawley rats; type: in vivo; conditions: male, plasma, rat, 10 mg/kg intravenous
Method: The pharmacokinetic study protocol of compound 1 was approved by the IACUC of TMU (LAC-2022-0452), in compliance with National Research Council’s Guide for the Care and Use of Laboratory Animal. 8 Week-old male Sprague–Dawley rats were provided by BioLASCO (Taipei, Taiwan). Each rat (n = 3) was intravenously administered with a single dosage of 10 mg/kg A089 through the jugular vein. Blood samples were collected from the jugular vein at predetermined time points: 0.03, 0.08, 0.25, 0.5, 1, 2, 4, 6, 8, 12, and 24 h postadministration. The blood samples were centrifuged at 4 °C to obtain the plasma samples. For protein precipitation, an aliquot of acetonitrile was added to the plasma, followed by centrifugation and filtration using a 0.22 μm filter. The filtrate was then analyzed by ultraperformance liquid chromatography–tandem mass spectrometry (UPLC–MS/MS, TQ-XS, Waters Corp., Manchester, UK). Pharmacokinetic parameters were calculated by using a noncompartmental analysis with Phoenix WinNonlin software (Certara, Princeton, NJ, USA).

U87MG-R = test: CCK8 cell proliferation assay, U87MG-R; type: cell-based; conditions: Homo sapiens, CCK8, 72 h
Method: (§2) Cell viability and drug cytotoxicity were determined by a CCK-8 kit (Cell Counting Kit-8, CK04-13, MD, USA) (CCK8, C0005, Target Molecule Corp., MA, USA) reagent. Cells were seeded 2 × 10^3 per well in the 96-well plate for 24 h, followed by treating at different concentrations of compounds for 72 h. Before the experiment, CCK8 was 10-fold diluted with the culture medium and then incubated with cells for 30 min. Finally, the OD was 450 nm absorbance and calculated for cell viability.

[2] = system: TMZ-resistant GBM cell lines A172R and PT#3R; test: MTT cytotoxicity assay, TMZ-resistant GBM lines (statement in words); type: cell-based; conditions: 0 to 80 μM, 72 h
Method: We utilized linezolid as the structural foundation to confirm the cytotoxicity of linezolid-conjugated functional domains against glioblastoma (GBM). We combined it with the binding structures of anti-histone deacetylases (HDACs) (denoted as compounds 1–5 and 11–14), antitubulin (compound 6), anticyclooxygenase (COX) (compound 7), and anti-heat shock protein 90 (Hsp90) (compounds 8–10). These constructs were then administered to TMZ-resistant GBM cell lines A172R and PT#3R at concentrations ranging from 0 to 80 μM over 72 h. The cytotoxic effects of these compounds were assessed using the MTT assay (Table 1 and Supporting Information IV). […] Given the remarkable cytotoxicity of compound 1 on both A172-R and PT#3-R TMZ-resistant cells, this study subsequently focused on compound 1 for further in-depth investigation and mechanistic exploration. To validate that the cytotoxic effect of compound 1 on GBM is not attributed to linezolid alone, we separately treated the TMZ-resistant GBM cell line PT#3-R with compound 1 and linezolid. […] This confirms that the cytotoxicity of compound 1 against GBM is primarily attributable to the inhibitory structure of linezolid-conjugated HDAC (Figure 2A). Furthermore, we compared the cytotoxic effects of compound 1 on various wild-type brain tumor cell lines, including U87MG, PT#3, LN229 GBM cells, and CT-2A mouse astrocyte cell line as well as TMZ-resistant variants cell lines, including U87MG-R, PT#3-R, CT-2A-R, and T98G (MGMT-positive). […] Additionally, we further confirmed the efficacy of compound 1 in GBM treatment.
MTT assay was employed to evaluate the cytotoxicity of the synthesized compound against resistant GBM cells. The MTT (3-(4,5-dimethylthiazol-2-yl)-2,5-diphenyltetrazolium bromide, catalog no. AM0818-0005) powder was purchased from BIONOVAS (Ontario, Canada). The MTT was prepared at 10 mg/mL stock with ultrapure water and then stored at −20 °C. […] Finally, 100 μL of the mixture was transferred to measure the OD 595 nm absorbance.

T98G (MGMT-positive) = test: CCK8 cell proliferation assay, T98G; type: cell-based; conditions: Homo sapiens, CCK8, 72 h
Method: as §2

HDAC1 = biological target: T2, HDAC1 (Homo sapiens, UniProt Q13547); test: HDAC enzyme inhibition assay, HDAC1; type: biochemical; conditions: 10-dose, 3-fold serial dilution starting at 10 μM
T2 construct: purchased Reaction Biology Corporation, Malvern, PA (contract assay service)
Method: as §1

[3] = system: Rad51 protein in PT#3R GBM cells; test: Immunoprecipitation and ubiquitination assay; type: cell-based, human; conditions: 24 h, IP with anti-Rad51 antibody

T2 sequence (Q13547 whole entry): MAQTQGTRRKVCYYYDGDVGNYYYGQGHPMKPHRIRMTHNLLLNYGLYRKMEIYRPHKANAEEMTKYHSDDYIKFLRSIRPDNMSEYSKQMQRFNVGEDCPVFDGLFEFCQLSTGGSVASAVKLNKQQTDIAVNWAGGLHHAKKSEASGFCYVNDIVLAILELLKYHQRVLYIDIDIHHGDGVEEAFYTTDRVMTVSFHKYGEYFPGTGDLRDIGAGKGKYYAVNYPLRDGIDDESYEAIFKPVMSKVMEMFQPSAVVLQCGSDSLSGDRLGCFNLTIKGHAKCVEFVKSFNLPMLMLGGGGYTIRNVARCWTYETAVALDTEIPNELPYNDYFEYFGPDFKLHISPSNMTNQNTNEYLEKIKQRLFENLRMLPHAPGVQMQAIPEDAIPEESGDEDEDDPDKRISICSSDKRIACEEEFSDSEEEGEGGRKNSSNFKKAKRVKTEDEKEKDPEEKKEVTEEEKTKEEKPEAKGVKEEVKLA

Structure (SMILES): O=C(/C=C/c1ccc(CNC[C@H]2CN(c3ccc(N4CCOCC4)c(F)c3)C(=O)O2)cc1)NO [compound 1, (S,E)-3-(4-((((3-(3-Fluoro-4-morpholinophenyl)-2-oxooxazolidin-5-yl)methyl)ami-no)methyl)phenyl)-N-hydroxyacrylamide]
- IC50 (HDAC8): 0.447 µM
- AUC(0-inf) at 24 h [1]: 2.28 ± 0.76 µg·h/mL
- AUC(0-t) at 24 h [1]: 2.01 ± 0.53 µg·h/mL
- C0 at 24 h [1]: 12.3 ± 8.13 µg/mL
- MRT inf at 24 h [1]: 7.91 ± 3.11 h
- Vd at 24 h [1]: 76.2 ± 12.3 L/kg
- clearance at 24 h [1]: 4.68 L/h/kg
- half-life at 24 h [1]: 12 ± 4.42 h
- IC50 (U87MG-R): 16.6 ± 0.45 µM
- cytotoxicity in TMZ-resistant GBM [2]: exhibited the capacity to induce cytotoxicity
- IC50 (T98G (MGMT-positive)): 30.6 ± 0.56 µM
- IC50 (HDAC1): 1.09 µM
- Rad51 ubiquitination [3]: significant increase in Rad51 ubiquitination
